US9585880B2, “Cyclic amino compounds for use in the treatment of cardiac disorders” (Universitetet I Oslo, priority 2013, dated 2017)
Structures can show the parent of a compound that is named as a salt.

Biological target: AKAP18δ-PLB interaction (UniProt P26678+Q6JP77)
Test: AlphaScreen binding assay of the GST-AKAP18δ : PLB-biotin interaction
Details: compound library screen; Table 1 compounds similar to those of formula (I); read-out: EC50
Description: Stable and optimal assay conditions were determined by cross-titrating GST-AKAP186 and biotinylated PLB using 10 μg/ml glutathione acceptor beads and 10 μg/ml streptavidin donor beads in an AlphaScreen assay. The excitation wavelength was 680 nm, with the emission wavelength being 520-560 nm. Signal intensity in each well was registered and the optimal concentration to use was chosen to be the concentration prior to the peak of the signal.
Concentrations to give a reliable signal were determined to be between 2 and 16 nM for AKAP18δ-GST and 4 and 20 nM PLB-biotin for relevant preparations of protein, for example 4 nM and 20 nM, respectively.
compound library was screened with the above assay.
The compounds of Examples 2-10 were tested for pharmacological activity using the Binding Assay described above. The compounds of Examples 2-10 were dissolved in DMSO to a concentration of 10 mM, diluted in aqueous solution and tested for their ability to disrupt the AKAP18δ-PLB interaction at different concentrations in the AlphaScreen binding assay as described above.
Signal intensity was recorded at each concentration of compound. Maximal signal representing full interaction between AKAP186 and PLB at 0 μM compound was set to 100% and loss of signal (due to compound disruption of the protein-protein interaction) plotted against log [conc compound] and curves fitted in SigmaPlot (see FIGS. 2a-2i).

AKAP18δ-PLB interaction, sequence (Q6JP77 whole entry): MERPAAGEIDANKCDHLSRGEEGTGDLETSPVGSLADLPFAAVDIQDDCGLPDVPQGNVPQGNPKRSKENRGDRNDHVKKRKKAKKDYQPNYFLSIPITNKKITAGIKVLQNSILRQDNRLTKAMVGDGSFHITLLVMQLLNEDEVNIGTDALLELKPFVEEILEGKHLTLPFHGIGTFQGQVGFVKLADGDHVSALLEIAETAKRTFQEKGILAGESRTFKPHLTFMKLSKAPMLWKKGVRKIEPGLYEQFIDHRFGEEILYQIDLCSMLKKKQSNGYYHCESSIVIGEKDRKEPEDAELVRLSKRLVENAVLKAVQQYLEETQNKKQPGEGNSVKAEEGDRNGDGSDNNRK
AKAP18δ-PLB interaction, sequence (P26678 whole entry): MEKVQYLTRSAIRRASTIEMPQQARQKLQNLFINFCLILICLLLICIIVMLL

| SMILES | EC50 |
| --- | --- |
| Cc1ccc(NC(=O)Nc2ccc(CN(Cc3ccc(NC(=O)Nc4ccc(C)cc4)cc3)Cc3ccc(NC(=O)Nc4ccc(C)cc4)cc3)cc2)cc1 | 0.0052 mM |
| O=C(O)c1csc(CN(Cc2ccc(F)cc2)Cc2ccc(OCc3ccccc3)cc2)n1 | 0.0395 mM |
| Cc1ccc(CN(CCC(c2ccccc2)c2ccccc2)Cc2nc(C(=O)O)cs2)cc1 | 0.0354 mM |
| Cc1ccc(NC(=O)Nc2ccc(CN(Cc3ccccc3)Cc3ccc(NC(=O)Nc4ccc(C)cc4)cc3)cc2)cc1 | 0.0025 mM |
| Cc1ccc(CN(Cc2ccc(F)cc2)Cc2nc(C(=O)O)cs2)cc1 | 0.137 mM |
| O=C(O)c1ccc(CN(Cc2ccccc2)Cc2ccc(C(=O)O)cc2)cc1 | 0.0296 mM |
| Nc1ccc(CN(Cc2ccccc2)Cc2ccc(N)cc2)cc1 | 0.0038 mM |
| Nc1ccc(CN(Cc2ccc(N)cc2)Cc2ccc(N)cc2)cc1 | 0.0222 mM |
| O=C(O)c1csc(CN(Cc2cccc(C(F)(F)F)c2)Cc2ccccc2F)n1 | 0.216 mM |
| CC(C)(C)c1ccc(CN(CCC(c2ccccc2)c2ccccc2)Cc2nc(C(=O)O)cs2)cc1 | 0.0211 mM |
| O=C(Nc1ccc(F)cc1)Nc1ccc(CN(Cc2ccccc2)Cc2ccc(NC(=O)Nc3ccc(F)cc3)cc2)cc1 | 0.0093 mM |
| O=[N+]([O-])c1ccc(CN(Cc2ccccc2)Cc2ccc([N+](=O)[O-])cc2)cc1 | 0.0075 mM |
| O=C(O)c1csc(CN(Cc2ccc(F)cc2)Cc2ccc(Cl)cc2)n1 | 0.0943 mM |
| O=C(O)c1csc(CN(Cc2ccc(F)cc2)Cc2cccc(Cl)c2)n1 | 0.0364 mM |
| O=C(O)c1csc(CN(CCC(c2ccccc2)c2ccccc2)Cc2ccccc2F)n1 | 0.0106 mM |
| Cc1ccc(CN(Cc2cccc(C(F)(F)F)c2)Cc2nc(C(=O)O)cs2)cc1 | 0.0983 mM |
| CC(C)(C)c1ccc(CN(Cc2ccc(F)cc2)Cc2nc(C(=O)O)cs2)cc1 | 0.0416 mM |
| O=C(O)c1csc(CN(CCC(c2ccccc2)c2ccccc2)Cc2ccc(F)cc2)n1 | 0.018 mM |
| CCN(CC)c1ccc(CN(Cc2ccccc2)Cc2ccc(N(CC)CC)cc2)cc1 | 0.0029 mM |
| O=C(O)c1csc(CN(Cc2ccc(F)cc2)Cc2cccc(C(F)(F)F)c2)n1 | 0.0605 mM |
| CN(C)c1ccc(CN(Cc2ccccc2)Cc2ccc(N(C)C)cc2)cc1 | 0.002 mM |
| COc1ccc(CN(Cc2ccc(F)cc2)Cc2nc(C(=O)O)cs2)cc1 | 0.0256 mM |
| O=C(Nc1ccccc1)Nc1ccc(CN(Cc2ccccc2)Cc2ccc(NC(=O)Nc3ccccc3)cc2)cc1 | 0.0036 mM |

Same assay, conditions: half-maximal disruption of AKAP18δ-PLB signal; compounds of Examples 2-10; read-out: EC50

| SMILES | EC50 |
| --- | --- |
| O=[N+]([O-])c1ccc(CN2CCc3ccccc3C2)cc1 [Compound 6, N-4-nitro-benzyl-1,2,3,4-tetrahydroisoquinoline] | 0.0715 mM |
| Cc1ccc(CN2CCc3ccccc3C2)cc1 [Compound 2, N-4-methyl-benzyl-1,2,3,4-tetrahydroisoquinoline] | 0.142 mM |
| c1ccc(CN2Cc3ccccc3C2)cc1 [Compound 7, N-benzyl-isoindoline hydrochloride salt] | 0.207 mM |
| Brc1ccc(CN2CCc3ccccc3C2)cc1 [Compound 5, N-4-bromo-benzyl-1,2,3,4-tetrahydroisoquinoline hydrochloride salt] | 0.0645 mM |
| CC(C)(C)c1ccc(CN2CCc3ccccc3C2)cc1 [Compound 3, N-4-t-butyl-benzyl-1,2,3,4-tetrahydroisoquinoline hydrochloride salt] | 0.0553 mM |
| c1ccc2c(c1)CN(Cc1ccncc1)C2 [Compound 8, N-4-methylpyridyl-isoindoline] | 0.0718 mM |

Same assay, conditions: half-maximal disruption of AKAP18δ-PLB signal; compounds of Examples 2-10; value in mM

| SMILES | EC50 |
| --- | --- |
| Cl.c1ccc(CN2CCc3ccccc3C2)cc1 [Compound 4, N-4-benzyl-1,2,3,4-tetrahydroisoquinoline hydrochloride salt] | single-digit |

Same assay, conditions: half-maximal disruption of AKAP18δ-PLB signal; compounds of Examples 2-10; value in mM; read-out: EC50

| SMILES | EC50 |
| --- | --- |
| Cl.c1ccc(CN2CCc3ccccc3C2)cc1 [Compound 4, N-4-benzyl-1,2,3,4-tetrahydroisoquinoline hydrochloride salt] | 6.5 mM |
